{
  "source": "patent US20260217746A1",
  "about": "“CRYSTALLINE FORMS OF ANTIOXIDANT COMPOUND” (Mitotech Ltd, priority 2023, published 2026)",
  "format_in_all_cases": "physicochemical",
  "key": {"[1]": {"assay": "Photodegradation of solid SkQ1 bromide under natural day/night illumination", "experimental": "As a result, SkQ1 was stored in light protective packaging or a dark glass container. The crystalline form of SkQ1 bromide as prepared in Example 2C and was tested by placing 50 mg portions at room temperature in transparent plastic vials, under conditions of natural change of day and night illumination with indirect sunlight."}, "[2]": {"assay": "Resistance to gamma radiation (sterilization)", "conditions": "sterilization by gamma radiation"}, "[3]": {"assay": "Hygroscopicity of the isolated solid", "conditions": "non-crystalline solid as isolated", "text": "Hygroscopic solids are associated with numerous difficulties when attempting to use them in pharmaceutical compositions, including low stability and difficulty in handling. Crystallization of halide salts of SkQ1 by using a number of solvents, individually or in combination, was attempted."}, "[4]": {"assay": "Solubility in water and in protic solvents (observations during crystallization work)", "experimental": "Attempts to reduce the concentration of ethanol and to use isopropanol were undertaken. SkQ1 bromide in an amount of 177 mg was added to an ethanol (1V)-ethyl acetate (5V) mixture. In another experiment, SkQ1 in an amount of 178 mg was added to an isopropanol (1V)-ethyl acetate (5V) mixture. […] To each of the above solutions, 5V ml of MTBE was added, initially oiling out the supersaturated solution. After leaving the solution overnight at room temperature, crystals were formed. This process with varying amounts of ethanol (from 0.274-0.574 V) led to similar results of solid formation after MTBE addition. Similarly, ethyl acetate was increased to 10V, with similar results of fine solid formation only after adding MTBE, but with lower yields. When ethanol solvent amounts were increased ton 1.174 V, crystallization occurred after adding MTBE, but yields were low."}, "[5]": {"assay": "Stability of crystalline SkQ1 chloride and iodide compared with SkQ1 bromide", "conditions": "crystals obtained by the same crystallization methods", "text": "Purity and stability parameters of obtained SkQ1 Cl and SkQ I were similar to such parameters of SkQ1 bromide."}},
  "data": [
    {"smiles": "CC1=C(C)C(=O)C(CCCCCCCCCC[P+](c2ccccc2)(c2ccccc2)c2ccccc2)=CC1=O", "note": "[Amorphous SkQ1 bromide, 2,3-dimethyl-1,4-benzoquinone-5-decyl-triphenylphosphonium bromide, reference compound]", "values": [
      {"measurement": "photosensitivity", "setting": "[1]; amorphous form, stored in light protective packaging or dark glass container", "result": "photosensitive"},
      {"measurement": "stability to gamma radiation", "setting": "[2]; listed as oil form", "result": "degraded"}
    ]},
    {"smiles": "CC1=C(C)C(=O)C(CCCCCCCCCC[P+](c2ccccc2)(c2ccccc2)c2ccccc2)=CC1=O", "note": "[crystalline form of SkQ1 bromide, 2,3-dimethyl-1,4-benzoquinone-5-decyl-triphenylphosphonium bromide]", "values": [
      {"measurement": "sample photodegradation", "setting": "[1]; 50 mg portions, room temperature, transparent plastic vials, natural day and night illumination with indirect sunlight, analyzed at 6 hours, 4 days, 1 month and 2 months", "result": "no degradation was found in any of the samples"},
      {"measurement": "resistance to degradation, in particular photodegradation, compared to the previously known amorphous form", "setting": "[1]; crystalline versus amorphous form", "result": "more resistant to degradation"},
      {"measurement": "stability to gamma radiation", "setting": "[2]; listed as crystalline SkQ1", "result": "resistant to gamma radiation"}
    ]},
    {"smiles": "CC1=C(C)C(=O)C(CCCCCCCCCC[P+](c2ccccc2)(c2ccccc2)c2ccccc2)=CC1=O", "note": "[SkQ1 bromide, 2,3-dimethyl-1,4-benzoquinone-5-decyl-triphenylphosphonium bromide]", "values": [
      {"measurement": "hygroscopicity", "setting": "[3]", "result": "hygroscopic"},
      {"measurement": "hygroscopicity", "setting": "[3]; listed as SkQ1 bromide salt", "result": "highly hygroscopic"},
      {"measurement": "solubility in protic solvents", "setting": "[4]; ethanol (1V)- or isopropanol (1V)-ethyl acetate (5V) mixture, room temperature, 0.5 hours", "result": "highly soluble"},
      {"measurement": "solubility in water", "setting": "[4]; water", "result": "sparingly soluble"}
    ]},
    {"smiles": "CC1=C(C)C(=O)C(CCCCCCCCCC[P+](c2ccccc2)(c2ccccc2)c2ccccc2)=CC1=O", "note": "[SkQ1 Cl]", "values": [
      {"measurement": "stability parameters relative to SkQ1 bromide", "setting": "[5]", "result": "similar"}
    ]}
  ]
}
